# Measurements reported in ChEMBL document CHEMBL1681635, “II. SAR studies of pyridyl-piperazinyl-piperidine derivatives as CXCR3 chemokine antagonists” (Bioorg Med Chem Lett, 2011).
# Columns and labels:
# [1] = target: T1, C-X-C chemokine receptor type 3 (Homo sapiens, UniProt P49682); assay: Antagonist activity at human CXCR3; assay type: functional
# T1 sequence (P49682 whole entry): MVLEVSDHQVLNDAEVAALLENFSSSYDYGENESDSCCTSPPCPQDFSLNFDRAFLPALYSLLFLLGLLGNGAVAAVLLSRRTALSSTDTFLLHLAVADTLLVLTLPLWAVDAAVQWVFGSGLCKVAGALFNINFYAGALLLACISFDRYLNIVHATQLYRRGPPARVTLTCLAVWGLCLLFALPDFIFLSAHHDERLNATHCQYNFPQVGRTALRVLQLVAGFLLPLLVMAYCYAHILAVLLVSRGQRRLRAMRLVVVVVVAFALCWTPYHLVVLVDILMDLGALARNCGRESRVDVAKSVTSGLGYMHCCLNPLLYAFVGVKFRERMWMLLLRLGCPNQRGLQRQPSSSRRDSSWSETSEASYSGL
# Cytochrome P450 3A4 = Cytochrome P450 3A4 (Homo sapiens, UniProt P08684); assay: Inhibition of CYP3A4; assay type: ADME
# [2] = AUC in Sprague-Dawley rat at 5 mg/kg, po after 24 hrs; assay type: ADME, organism-based; set-up: time < 24 hr, dose 5 mg/kg, route oral; details: plasma
# Rattus norvegicus = assay: Volume of distribution at steady state in Sprague-Dawley rat at 5 mg/kg, po; assay type: ADME, organism-based; set-up: dose 5 mg/kg, route oral; details: in vivo
# Cytochrome P450 2D6 = Cytochrome P450 2D6 (Homo sapiens, UniProt P10635); assay: Inhibition of CYP2D6; assay type: ADME
# Cytochrome P450 2C19 = Cytochrome P450 2C19 (Homo sapiens, UniProt P33261); assay: Inhibition of CYP2C19; assay type: ADME
# [3] = AUC in Sprague-Dawley rat at 10 mg/kg, po after 6 hrs; assay type: ADME, organism-based; set-up: time < 6 hr, dose 10 mg/kg, route oral; details: plasma
# [4] = target: T2, C-X-C chemokine receptor type 3 (Mus musculus, UniProt O88410); assay: Antagonist activity at mouse CXCR3; assay type: functional
# T2 sequence (O88410 whole entry): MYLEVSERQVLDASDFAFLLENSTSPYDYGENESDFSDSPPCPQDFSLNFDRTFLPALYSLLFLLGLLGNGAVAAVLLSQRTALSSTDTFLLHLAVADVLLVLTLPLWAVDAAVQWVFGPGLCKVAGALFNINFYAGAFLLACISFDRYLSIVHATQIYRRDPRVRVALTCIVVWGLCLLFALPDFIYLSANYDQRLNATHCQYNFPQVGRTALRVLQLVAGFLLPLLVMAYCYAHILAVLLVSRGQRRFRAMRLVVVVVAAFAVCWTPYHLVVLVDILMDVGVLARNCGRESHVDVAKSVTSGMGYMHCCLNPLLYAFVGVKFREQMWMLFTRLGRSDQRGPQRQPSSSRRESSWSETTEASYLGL
# [5] = Clearance in Sprague-Dawley rat at 5 mg/kg, po; assay type: ADME, organism-based; set-up: dose 5 mg/kg, route oral; details: in vivo
# [6] = target: T3, C-X-C chemokine receptor type 3 (Rattus norvegicus, UniProt Q9JII9); assay: Antagonist activity at rat CXCR3; assay type: functional
# T3 sequence (Q9JII9 whole entry): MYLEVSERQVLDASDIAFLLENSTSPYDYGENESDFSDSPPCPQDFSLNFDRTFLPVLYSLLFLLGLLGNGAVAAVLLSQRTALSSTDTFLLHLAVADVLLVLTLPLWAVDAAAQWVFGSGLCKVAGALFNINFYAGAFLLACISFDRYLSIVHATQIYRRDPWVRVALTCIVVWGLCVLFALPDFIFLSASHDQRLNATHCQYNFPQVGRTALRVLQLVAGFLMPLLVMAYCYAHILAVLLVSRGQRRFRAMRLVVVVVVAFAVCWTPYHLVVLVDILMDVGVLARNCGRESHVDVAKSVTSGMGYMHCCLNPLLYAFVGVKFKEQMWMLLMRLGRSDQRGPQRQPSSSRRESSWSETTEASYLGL
# [7] = Half life in Sprague-Dawley rat at 5 mg/kg, po; assay type: ADME, organism-based; set-up: dose 5 mg/kg, route oral; details: in vivo
# Cytochrome P450 3A4, sequence (P08684 whole entry): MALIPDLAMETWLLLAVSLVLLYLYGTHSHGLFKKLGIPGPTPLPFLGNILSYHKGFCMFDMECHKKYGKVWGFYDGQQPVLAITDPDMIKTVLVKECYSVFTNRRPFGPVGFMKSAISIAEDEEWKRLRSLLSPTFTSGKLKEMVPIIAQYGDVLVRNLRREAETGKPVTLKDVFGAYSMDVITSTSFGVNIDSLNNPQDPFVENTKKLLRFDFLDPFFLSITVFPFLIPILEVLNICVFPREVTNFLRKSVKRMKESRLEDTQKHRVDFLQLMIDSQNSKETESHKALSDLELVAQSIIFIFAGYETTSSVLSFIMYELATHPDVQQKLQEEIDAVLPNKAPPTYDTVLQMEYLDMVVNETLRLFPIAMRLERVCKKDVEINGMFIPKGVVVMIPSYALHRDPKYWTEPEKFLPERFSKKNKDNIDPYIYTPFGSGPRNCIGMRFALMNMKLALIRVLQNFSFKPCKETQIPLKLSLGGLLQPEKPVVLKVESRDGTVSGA
# Cytochrome P450 2C19, sequence (P33261 whole entry): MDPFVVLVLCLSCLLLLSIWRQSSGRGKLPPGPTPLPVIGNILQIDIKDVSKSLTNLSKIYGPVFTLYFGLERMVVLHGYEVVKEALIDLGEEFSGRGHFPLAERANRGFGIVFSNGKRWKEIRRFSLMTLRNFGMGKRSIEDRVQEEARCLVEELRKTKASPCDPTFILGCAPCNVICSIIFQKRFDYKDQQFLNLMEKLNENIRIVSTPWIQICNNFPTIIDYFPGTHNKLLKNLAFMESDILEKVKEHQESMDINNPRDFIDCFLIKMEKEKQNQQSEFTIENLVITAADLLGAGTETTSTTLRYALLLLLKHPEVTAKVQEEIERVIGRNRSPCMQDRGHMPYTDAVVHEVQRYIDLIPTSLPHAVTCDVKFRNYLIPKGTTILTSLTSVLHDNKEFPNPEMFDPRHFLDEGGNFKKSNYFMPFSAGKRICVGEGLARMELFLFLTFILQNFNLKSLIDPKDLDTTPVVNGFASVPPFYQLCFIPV
# Cytochrome P450 2D6, sequence (P10635 whole entry): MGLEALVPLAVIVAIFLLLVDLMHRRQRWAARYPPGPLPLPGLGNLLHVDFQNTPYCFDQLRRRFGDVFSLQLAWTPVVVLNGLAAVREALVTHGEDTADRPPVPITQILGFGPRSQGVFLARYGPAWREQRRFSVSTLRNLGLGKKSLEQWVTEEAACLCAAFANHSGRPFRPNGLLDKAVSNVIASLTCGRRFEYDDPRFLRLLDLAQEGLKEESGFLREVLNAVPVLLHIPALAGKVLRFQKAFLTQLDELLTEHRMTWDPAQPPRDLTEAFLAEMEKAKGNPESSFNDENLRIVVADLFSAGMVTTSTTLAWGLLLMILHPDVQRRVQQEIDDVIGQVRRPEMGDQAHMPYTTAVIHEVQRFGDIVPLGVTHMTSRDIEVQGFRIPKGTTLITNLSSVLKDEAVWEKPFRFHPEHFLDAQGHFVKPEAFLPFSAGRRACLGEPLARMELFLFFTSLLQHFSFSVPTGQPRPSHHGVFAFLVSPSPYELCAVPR
SMILES,IC50 [1],further results
CNC(=O)c1cnc(N2CCN(C3CCN(CC(=O)c4ccc(F)cc4)CC3)[C@@H](C)C2)c(Cl)c1,> 10000 nM,
C[C@H]1CN(c2ncc(C(=N)N)cc2Cl)CCN1C1CCN(Cc2ccc(Cl)cc2)CC1,80 nM,
CNC(=O)c1cnc(N2CCN(C3CCN(Cc4ccccn4)CC3)[C@@H](C)C2)c(Cl)c1,7990 nM,
CNC(=O)c1cnc(N2CCN(C3CCN(Cc4ccc(Cl)cc4)C(=O)C3)[C@@H](C)C2)c(Cl)c1 (stereo not given in full),7000 nM,
CNC(=O)c1cnc(N2CCC(N3CCN(Cc4ccc(Cl)cc4)CC3)C(C)C2)c(Cl)c1 (stereo not given),280 nM,
"CNC(=O)c1cnc(N2CCN(C3CCN(C4CCc5cc(Cl)ccc54)CC3)[C@@H](C)C2)c(Cl)c1 (single isomer, unassigned; isomer 1)",29 nM,
COC(=O)c1cnc(N2CCN(C3CCN(Cc4ccc(Cl)cc4)CC3)[C@@H](C)C2)c(Cl)c1,520 nM,
CCNC(=O)c1cnc(N2CCN(C3CCN(Cc4ccc(Cl)cc4F)CC3)C(C3CC3)C2)c(Cl)c1 (stereo not given),32 nM,
C[C@H]1CN(c2ncc(C(=O)NCc3ccc(F)c(F)c3)cc2Cl)CCN1C1CCN(Cc2ccc(Cl)cc2)CC1,6 nM,IC50 (Cytochrome P450 3A4): > 10000 nM; AUC at 24 h [2]: 1.1 µM·h; Vdss (Rattus norvegicus): 17.6 L/kg; IC50 (Cytochrome P450 2D6): > 10000 nM; IC50 (Cytochrome P450 2C19): > 10000 nM; AUC at 6 h [3]: 0.5 µM·h; IC50 [4]: 6.7 nM; CL/F [5]: 32.6 mL/min/kg; IC50 [6]: 9.9 nM; half-life [7]: 6.8 h
CNC(=O)c1cnc(N2CCN(C3CCN(Cc4cccs4)CC3)[C@@H](C)C2)c(Cl)c1,1980 nM,
CNC(=O)c1cnc(N2CCN(C3CCN(Cc4ccc(Cl)cc4)CC3)C(C(=O)O)C2)c(Cl)c1 (stereo not given),> 50000 nM,
CNC(=O)c1cnc(N2CCN(C3CCN(C(=O)c4ccc(Cl)cc4)CC3)[C@@H](C)C2)c(Cl)c1,210 nM,
CNC(=O)c1cnc(N2CCN(C3CCN(Cc4ccco4)CC3)[C@@H](C)C2)c(Cl)c1,8100 nM,
C[C@H]1CN(c2ncc(NC(=O)C3CC3)cc2Cl)CCN1C1CCN(Cc2ccc(Cl)cc2)CC1,20 nM,
CNC(=O)c1cnc(N2CCN(C3CCN(Cc4ccc(F)cc4Cl)CC3)[C@@H](C)C2)c(Cl)c1,58 nM,
CCNC(=N)c1cnc(N2CCN(C3CCN(Cc4ccc(Cl)cc4)CC3)[C@@H](C)C2)c(Cl)c1,83 nM,
CNC(=O)c1cnc(N2CCC(N3CCN(Cc4ccc(Cl)cc4)C[C@@H]3C)CC2)c(Cl)c1,12500 nM,
CCNC(=O)c1cnc(N2CCN(C3CCN(Cc4ccc(Cl)cc4)CC3)[C@@H](C(C)C)C2)c(Cl)c1,23 nM,
CNC(=O)c1cnc(N2CCN(C3CCN(Cc4ccc(C)cc4)CC3)[C@@H](C)C2)c(Cl)c1,87 nM,
"CNC(=O)c1cnc(N2CCN(C3CCN(C4CCc5cc(Cl)ccc54)CC3)[C@@H](C)C2)c(Cl)c1 (single isomer, unassigned; isomer 2)",35 nM,

SMILES,IC50 [1],further results
CNC(=O)c1cnc(N2CCN(C3CCN(Cc4ccc(Cl)cc4)CC3)[C@@H](C)C2)c(Cl)c1,32 nM,
CC(C)NC(=O)c1cnc(N2CCN(C3CCN(Cc4ccc(Cl)cc4)CC3)[C@@H](C)C2)c(Cl)c1,5 nM,
CCNC(=O)c1cnc(N2CCN(C3CCN(Cc4ccc(Cl)cc4F)CC3)[C@@H](CC)C2)c(Cl)c1,,AUC at 6 h [3]: 0.95 µM·h; IC50 [4]: 1.1 nM; IC50 [6]: 1.6 nM
CNC(=O)c1cnc(N2CCN(C3CCN(Cc4ccc(Cl)cc4)CC3)CC2)c(Cl)c1,560 nM,
CNC(=O)c1cnc(N2CCN(C3CCN(Cc4ccc(Cl)cc4)CC3)[C@@H](CC(C)C)C2)c(Cl)c1,260 nM,
CNC(=O)c1cnc(N2CCN(C3CCN(Cc4ccc[nH]4)CC3)[C@@H](C)C2)c(Cl)c1,8060 nM,
C[C@H]1CN(C2CCN(Cc3ccc(Cl)cc3)CC2)CCN1c1ncc(C(=O)NCc2ccc(Cl)c(Cl)c2)cc1Cl,39 nM,
C[C@H]1CN(c2ncc(C(=O)NCc3ccc(Cl)c(Cl)c3)cc2Cl)CCN1C1CCN(Cc2ccc(Cl)cc2)CC1,16 nM,
CNC(=O)c1cnc(N2CCN(C3CCN(Cc4ccc(Cl)cc4)CC3)C(C(=O)NC)C2)c(Cl)c1 (stereo not given),8900 nM,
CC1(N2CCN(c3ncc(C(=O)NCc4ccc(Cl)c(Cl)c4)cc3Cl)CC2)CCN(Cc2ccc(Cl)cc2)CC1,27 nM,
CNC(=O)c1cnc(N2CCN(C3CCN(Cc4ccc(Cl)cc4Cl)CC3)[C@@H](C)C2)c(Cl)c1,17 nM,
CNC(=O)c1cnc(N2CCC(N3CCN(Cc4ccc(Cl)cc4)C[C@H]3C)CC2)c(Cl)c1,7350 nM,
CNC(=O)c1cnc(N2CCN(C3CCN(Cc4ccc(Cl)cc4)CC3)C(C(=O)OC)C2)c(Cl)c1 (stereo not given),140 nM,
CC[C@H]1CN(c2ncc(C(=O)NC)cc2Cl)CCN1C1CCN(Cc2ccc(Cl)cc2)CC1,3 nM,
C[C@H]1CN(c2ncc(C(N)=O)cc2Cl)CCN1C1CCN(Cc2ccc(Cl)cc2)CC1,39 nM,
CNC(=O)c1cnc(N2CCN(C3CCN(C(C)c4ccc(Cl)cc4)CC3)[C@@H](C)C2)c(Cl)c1 (stereo in doubt; 6l),110 nM,
CNC(=O)c1cnc(N2CCN(C3CCN(Cc4ccc(Cl)cc4)CC3)C(CO)C2)c(Cl)c1 (stereo not given),910 nM,
C[C@H]1CN(c2ncc(C(=O)Nc3ccc(F)c(F)c3)cc2Cl)CCN1C1CCN(Cc2ccc(Cl)cc2)CC1,22 nM,
CNC(=O)c1cnc(N2CCN(C3CCN(C(=O)c4ccnc5cc(Cl)ccc45)CC3)[C@@H](C)C2)c(Cl)c1,> 10000 nM,
CC(=O)Nc1cnc(N2CCN(C3CCN(Cc4ccc(Cl)cc4)CC3)[C@@H](C)C2)c(Cl)c1,8 nM,

SMILES,IC50 [1],further results
"CNC(=O)c1cnc(N2CCN(C3CCN(C(C)c4ccc(Cl)cc4)CC3)[C@@H](C)C2)c(Cl)c1 (single isomer, unassigned; isomer 1)",5 nM,
CNC(=O)c1cnc(N2CCN(C3CCN(Cc4ccc(Cl)cc4)C(C)C3)CC2)c(Cl)c1 (stereo not given),31 nM,
CCNC(=O)c1cnc(N2CCN(C3CCN(Cc4ccc(Cl)cc4)CC3)[C@@H](CC)C2)c(Cl)c1,0.3 nM,AUC at 6 h [3]: 0.41 µM·h; IC50 [4]: 0.5 nM; IC50 [6]: 1.2 nM
CCNC(=O)c1cnc(N2CCN(C3CCN(Cc4ccc(Cl)cc4)CC3)[C@@H](C)C2)c(Cl)c1,2.3 nM,
CNC(=O)c1cnc(N2CCN(C3CCN(Cc4ccc(C(F)(F)F)cc4)CC3)[C@@H](C)C2)c(Cl)c1,63 nM,
CNC(=O)c1cnc(N2CCN(C3CCN(Cc4ccc(Cl)cc4)CC3)C(COC)C2)c(Cl)c1 (stereo not given),3100 nM,
CNC(=O)c1cnc(N2CCN(C3CCN(Cc4ccc(S(C)(=O)=O)cc4)CC3)[C@@H](C)C2)c(Cl)c1,> 10000 nM,
O=C(NCc1ccc(F)c(F)c1)c1cnc(N2CCN(C3CCN(Cc4ccc(Cl)cc4)CC3)CC2)c(Cl)c1,,IC50 [4]: 84 nM; IC50 [6]: 97 nM
CNC(=O)c1cnc(N2CCN(C3CCN(Cc4ccc(Cl)cc4F)CC3)[C@@H](C)C2)c(Cl)c1,18 nM,
C[C@H]1CN(c2ncc(C(=O)NCC3CCCCC3)cc2Cl)CCN1C1CCN(Cc2ccc(Cl)cc2)CC1,2.4 nM,
O=C(NCc1ccc(Cl)c(Cl)c1)c1cnc(N2CCN(C3CCN(Cc4ccc(Cl)cc4)CC3)CC2)c(Cl)c1,35 nM,
C[C@H]1CN(c2ncc(C(=O)N3CCC3)cc2Cl)CCN1C1CCN(Cc2ccc(Cl)cc2)CC1,630 nM,
CNC(=O)c1cnc(N2CCN(C3CCN(Cc4ccc(Cl)cc4)CC3)[C@@H](c3ccccc3)C2)c(Cl)c1,830 nM,
C[C@@H]1CN(C2CCN(Cc3ccc(Cl)cc3)CC2)CCN1c1ncc(C(=O)NCc2ccc(Cl)c(Cl)c2)cc1Cl,220 nM,
C[C@H]1CN(c2ncc(C(=O)N3CCCCC3)cc2Cl)CCN1C1CCN(Cc2ccc(Cl)cc2)CC1,900 nM,
O=C(NCc1ccc(Cl)c(Cl)c1)c1cnc(N2CCC(N3CCN(Cc4ccc(Cl)cc4)CC3)CC2)c(Cl)c1,4500 nM,
CC1CN(C2CCN(Cc3ccc(Cl)cc3)CC2)CCN1c1ccc(C(=O)NCc2ccc(F)c(F)c2)cn1 (stereo not given),2700 nM,
CNC(=O)c1cnc(N2CCN(C3CCN(Cc4ccc(Cl)cc4)CC3C)CC2)c(Cl)c1 (stereo not given),64 nM,
O=C(NCc1ccc(F)c(F)c1)c1cnc(N2CCN(C3CCN(Cc4ccc(Cl)cc4)CC3)C(=O)C2)c(Cl)c1,1400 nM,
